Results from patent US20170327556A1, “CARTILAGE-BINDING FUSION PROTEINS” (Merrimack Pharmaceuticals, Inc., priority 2013, published 2017).

Columns and labels:
BXPC-3 cells = experiment: Stimulation of AKT phosphorylation in BXPC-3 cells (pAKT ELISA); type: cell-based; details: 10 min stimulation, doses in M (Table 4), 6x-Histidine-tagged fusion proteins
Description: Fusion proteins comprising IGF-1 and a cartilage matrix binding domain were prepared as described above. Six fusion proteins were prepared: GF-Fus1 (6x-Histidine-tagged), GF-Fus2(6x-Histidine-tagged), GF-Fus3 (6x-Histidine-tagged), GF-Fus4 (6x-Histidine-tagged), GF-Fus5 (6x-Histidine-tagged), and GF-Fus6 (6x-Histidine-tagged). In order to ensure that the growth factor portion of the fusion protein was active in the fusion proteins, each construct was tested for its ability to stimulate AKT phosphorylation. Wild-type IGF-1 (wtIGF) was included as a control. Bovine chondrocytes were stimulated with a range of doses of each fusion protein, and pAKT levels were measured by ELISA.
For ligand stimulation, chondrocytes were seeded at 200,000 cells/well into 96-well tissue culture plates with 100 μL of chondrocyte culture medium with fetal bovine serum (10% v/v, Life Technologies Cat#16140071). Alternatively, BXPC-3 cells, a pancreatic adenocarcinoma cell line (ATCC® CRL-1687™), were seeded at 30,000 cells/well into 96-well tissue culture plates with 100 μL of BXPC-3 medium (RPMI-1640, e.g., ATCC® 30-2001™), with L-glutamine (2 mM), Penicillin-Streptomycin (1×, Gibco® 15140-122), Fetal Bovine Serum (10% v/v, Life Technologies Cat#16140071)). After 24 hrs, both chondrocytes and BXPC-3 cells were rinsed with 100 μL of sterile PBS (pH=7.4) per well and 100 μl of chondrocyte or BXPC-3 culture medium (without fetal bovine serum) was added to the corresponding cell type. After an additional 24 hrs, cells were stimulated with the doses of fusion proteins set forth in Table 4 by adding 25 μL of fusion protein at a concentration 5 times greater than the concentration listed in Table 4 to the 100 μL of medium already in the wells. After 10 min of stimulation, fusion protein was removed and wells were rinsed in ice cold PBS (pH=7.4). 50 μL/well of cell extraction buffer (Invitrogen cat# FNN0011) was added and incubated with shaking at 4° C. for 30 minutes. Lysates were then frozen at −80° C.
Corning high binding 384 well black ELISA plates (cat#3577) are coated with 30 μL of capture antibody at 4 μg/mL (anti-AKT1 total capture antibody, Upstate, Cat#05-591MG) in PBS (pH=7.4) for 16 hours at room temperature, washed and blocked with […] 2% bovine serum albumin (Sigma Cat# A3294) in PBS (pH=7.4) for 1 hour at room temperature. 20 μL of thawed lysates or recombinant pAKT standards (ten 2-fold serial dilutions of 400 ng recombinant human AKT, active (Upstate, Cat#14-276) in PBS (pH=7.4) containing 50% v/v Cell extraction buffer (Invitrogen Cat#FNN0011), 1% bovine serum albumin (Sigma Cat# A3294), 0.05% Tween20) are applied to the coated plate and incubated for 2 hours at room temperature. After washing 3 times with 100 μL/well of 0.05% Tween-20/PBS (pH=7.4) bound phospho-AKT is detected using Phospho-AKT (Ser473)(587F11)-biotinylated (Cell Signaling, Cat#5102), streptavidin-HRP (R&D Systems Cat# DY998, Part #890803), SuperSignal ELISA PicoChemiluminescent Substrate (Thermo Scientific Cat#37069), using a luminometer to detect light emissions at 425 nm.

[1] = system: human ankle and knee cartilage explants; experiment: In vitro joint disease model, explanted human cartilage: ^35S-sulfate incorporation; type: cell-based; details: for sulfated matrix biosynthesis in the absence of cytokines, 16 day combination with Dexamethasone: FIG. 14E black bars; for ^35S-sulfate incorporation, 16 D treatment: protein 16 days in combination with Anti-Infl-1, cytokines, versus Disease control
Description: Human cartilage explants are harvested from the knee and ankle of human cadaver donors within 24 hours postmortem. Joints are aseptically dissected by a pathologist to assess gross cartilage morphology by the modified Collins scale (Kuettner, et al., Cartilage degeneration in different human joints. Osteoarthritis Cartilage. 2005; 13(2):93-103) and only grade 0 or 1 joints are used. Full-thickness knee cartilage surfaces are harvested from the femoral-patellar groove and chondyles using a scalpel. Full thickness ankle cartilage is harvested from the dome of talus, proximal area under dome of talus, head of the talus, tibial malleolus and fibular malleolus using a scalpel. Using a 4 mm diameter disposable biopsy punch, full thickness cartilage cores are punched from the cartilage surfaces keeping the superficial zone intact and used as explants in culture.
Explants are cultured in 96-well plates in 300 μL of low glucose DMEM (1× Gibco 11885-084) with added Penicillin-Streptomycin (1×, Gibco 15140-122), ascorbic acid (20 μg/mL, Sigma A4403), proline (400 μM, Sigma P5607-256), non-essential amino acids (1×, Sigma M7145), and HEPES ([…], Gibco 15630-080). Explants from 2-3 donors (4-6 explants per donor) are used for each treatment condition for a total explant number of 12-18 per condition. Donor ages were: 67 year male ankle, 71 year male ankle, 76 year female ankle, 59 year male knee, 34 year male knee, and 63 year female knee. Medium is changed every 2 days. On day 14, the medium is supplemented with 5 μCi/mL of ^35S-sodium sulfate (Perkin Elmer NEX041H005MC, 5 mCi).
Time points are taken at day 16 as follows. Explant tissue is washed four times for 30 min each (2 hr total) in 1 mM unlabeled sodium sulfate in PBS. Each explant is weighed wet and frozen at −20° C. until digestion. Tissue digestion is performed with Proteinase K (Roche cat #3115879001) and each explant is digested in 1 mL 500 μg/mL Proteinase K in 50 mM Tris-HCL, 1 mM calcium chloride pH=8.0 buffer at 60° C. overnight. Measurement of sGAG content and DNA content is performed using standard assay methods such as those described in Hoemann, 2004, Methods in Molecular Medicine: Cartilage and Osteoarthritis. Totowa, N.J.: Humana Press Inc.; p. 127-52. ^35S-sulfate content of the digested cartilage explants is quantified by mixing 20 μL of digest with 250 μL of scintillation fluid (Perkin Elmer cat #1200-439) and counting with A WALLAC 1450 MICROBETA TRILUX scintillation counter.
Treatments were given at the following concentrations: GF-Fus1 13.3 nM=135 ng/mL; and GF-Fus3 13.3 nM=181 ng/mL; Dexamethasone 100 nM=39.2 ng/mL. Growth factor and steroid treatment conditions included the cytokines TNF-alpha (R&D Systems, Cat#210-TA, 25 ng/mL), IL-6 (R&D Systems, Cat#206-IL, 50 ng/mL), and IL-6R alpha (R&D Systems, Cat#227-SR, 250 ng/mL) which were supplied in each medium change. GF-Fus1 and GF-Fus3 were added to fresh medium for either the first 8 days (8 D) or the entire 16 day culture duration (16 D), whereas Dexamethasone was added for the entire 16 days in all cases. Controls were either no cytokines (Healthy) or with cytokines alone (Disease). The outcomes measured from the cartilage explants at day 16 were ^35S-sulfate incorporation, DNA, and sGAG content, and sGAG released to media for all media changes.

Substance | logEC50 Mean (BXPC-3 cells) | synthesis of new sulfated cartilage matrix (^35S-sulfate incorporation) ([1]; 13.3 nM, 16 days with cytokines, with and without Dexamethasone, versus Disease) | sulfated matrix biosynthesis in the absence of cytokines, 16 day combination with Dexamethasone ([1]; human knee chondyle cartilage) | ^35S-sulfate incorporation, 16 D treatment ([1]; FIGS. 14A-D) | ^35S-sulfate incorporation, 8 D treatment ([1]; protein first 8 days only, Anti-Infl-1 16 days, cytokines, measured final 48 hours of 16 day culture, FIGS. 14A-D) | sulfated matrix biosynthesis in the absence of cytokines, protein removed for the final 8 days ([1]; with Dexamethasone 16 days, human knee chondyle cartilage, FIG. 14E white bars)
GF-Fus6: IGF-1(LR3) fused to CNA344 CB domain | −8.832 |  |  |  |  | 
GF-Fus5: IGF-1(LR3) fused to CNA35 CB domain | −8.969 |  |  |  |  | 
GF-Fus3: C-terminal fusion IGF-1(LR3)-PRELP heparin binding domain | −9.231 | upregulates | restores sulfated matrix biosynthesis to a level at or above healthy controls | stimulated | equivalent or superior potency to the continuously delivered proteins | sustains sulfated matrix biosynthesis at the level equivalent to continuous 16 day treatment
wtIGF: Wild-type IGF-1 (R&D systems 291-G1), control [reference compound] | −9.081 |  |  |  |  | 
GF-Fus1: IGF-1 variant polypeptide Long [R^3]-IGF-1, no fused binding domain; used 6x-Histidine-tagged as control [reference compound] | −8.605 |  | restores sulfated matrix biosynthesis to a level at or above healthy controls | stimulated |  | 
